Several values for one entry are separate records, joined by “and”; a condition that tells them apart may be missing. Equal entries are not always repeated.
Legend:
CVB3 = assay: Inhibition of CVB3 in RD cells (viral RNA, qRT-PCR); format: cell-based; details: inhibiting CVB3 in RD cells
Method: (1) RD cells were plated in a 24-well plate.
(2) When the cells grew to a confluence of 70%-80%, the DMEM medium containing 10% serum was replaced with a DMEM medium containing 2% serum (the DMEM medium containing 2% serum was added in each well at an amount of 0.5 mL), and 5 μL of CVB3 virus of 1×10^6 PFU/mL was added to each well.
(3) After 1 h, the polypeptides with final concentrations of 0.3125 μM, 0.625 μM, 1.25 μM, 2.5 μM, and 5 μM were added respectively. The group without polypeptide added was used as a control.
(4) The samples were collected 24 h after the infection of CVB3 virus, and RNA was extracted with the total RNA extraction kit.
(§1) (5) The supernatant was discarded, then 350 μL of TRK lysate was added to each well, and the plate was put on a shaker for 5 min.
(§2) (6) 350 μL of 70% ethanol (DEPC) was added to each well, and then the plate was put on a shaker for 5 min.
(§3) (7) The solution in each well was transferred to a RNA extraction column for 1 min of centrifugation at 12000 g.
(§4) (8) The solution obtained in the recovery tube was reloaded on the column again for 1 min of centrifugation at 12000 g.
(§5) (9) RNA washing buffer 1 was added in the column for 30 s of centrifugation at 12000 g. […]
(14) 2 μL of RNA sample was subjected to a fluorescence quantitative experiment using the one step qRT-PCR kit. […]

[1] = Cytotoxicity of polypeptides in Vero cells (CCK-8); format: cell-based; details: Vero cells, 24 h
Method: (§6) Therefore, this standard was testified by cytotoxicity assay, and the cells without any treatment were used as a control group.
(§7) (1) Vero cells were plated in a 96-well plate at 100 μL per well.
(§8) (2) When the cells grew to a confluence of 70%-80%, the DMEM medium containing 10% serum was replaced with a DMEM medium containing 2% serum, and a certain concentration gradient of polypeptide RQ or LQ or SQ was added, so that the final concentrations of the polypeptide in the wells were 0.073242 μM, 0.146484 μM, 0.292969 μM, 0.585938 μM, 1.171875 μM, 2.34375 μM, 4.6875 μM, 9.375 μM, 18.75 μM, 37.5 μM, 75 μM and 150 μM, respectively.
(§9) (3) The samples were collected 24 h after the addition of the polypeptide, and then 10 μL of live cell detection reagent CCK-8 was added to each well and mixed well.
(§10) (4) The plate was placed at 37° C. for 2 h.
(§11) (5) The absorbance value at OD450 was detected by a microplate reader.
(§12) The CC50 of each polypeptide was calculated taking the cell viability of untreated cells as 100%.

Vero cells = assay: Cytotoxicity of polypeptides in Vero cells (CCK-8); format: cell-based; details: Vero cells, 24 h
Method: as §6, §7, §8, §9, §10, §11, §12

EV71 = assay: Inhibition of EV71 in huh7 cells (viral RNA, qRT-PCR); format: cell-based, enterovirus 71 (EV71); details: anti-EV71 in huh7 cells
Method: (1) Different cells were plated in a 24-well plate.
(2) When the cells grew to a confluence of 70%-80%, the DMEM medium containing 10% serum was replaced with a DMEM medium containing 2% serum (the DMEM medium containing 2% serum was added in each well at an amount of 0.5 mL), and 5 μL of EV71 virus of 1×10^6 PFU/mL was added to each well.
(3) After 1 h, different polypeptides (RQ or control TAT) with final concentrations of 0.3125 μM, 0.625 μM, 1.25 μM, 2.5 μM, and 5 μM were added respectively. The group without polypeptide added was used as a control.
(4) The samples were collected 24 h after the infection of EV71 virus, and RNA was extracted with the total RNA extraction kit.
as §1, §2, §3, §4, §5
(14) 2 μL of RNA sample was subjected to a fluorescence quantitative experiment using the one step qRT-PCR kit.

[2] = Toxicity assay in Huh7 cells (CCK-8); format: cell-based; details: human, Huh7 cells
Method: (§13) (1) Different cells were plated in a 96-well plate at 100 μL per well.
(§14) (2) When the cells grew to a confluence of 70%-80%, the DMEM medium containing 10% serum was replaced with a DMEM medium containing 2% serum, and a certain concentration gradient of polypeptide RQ was added, so that the final concentrations of the polypeptide in the wells were 0.073242 μM, 0.146484 μM, 0.292969 μM, 0.585938 μM, 1.171875 μM, 2.34375 μM, 4.6875 μM, 9.375 μM, 18.75 μM, 37.5 μM, 75 μM, 150 μM, and 300 μM, respectively.
as §9, §10, §11

Huh7 cells = assay: Toxicity assay in Huh7 cells (CCK-8); format: cell-based; details: Table 14, 24 h
Method: as §13, §14, §9, §10, §11

SMILES: CC[C@H](C)[C@H](NC(=O)[C@H](C)NC(=O)[C@H](CO)NC(=O)[C@H](CCCNC(=N)N)NC(=O)[C@H](CC(N)=O)NC(=O)[C@H](CC(N)=O)NC(=O)[C@H](Cc1ccc(O)cc1)NC(=O)[C@H](CCC(=O)O)NC(=O)[C@H](CCCNC(=N)N)NC(=O)CNC(=O)[C@H](CO)NC(=O)CNC(=O)[C@H](CCCNC(=N)N)NC(=O)[C@H](CCCNC(=N)N)NC(=O)[C@H](CCCNC(=N)N)NC(=O)[C@H](CCC(N)=O)NC(=O)[C@H](CCCNC(=N)N)NC(=O)[C@H](CCCNC(=N)N)NC(=O)[C@H](CCCCN)NC(=O)[C@H](CCCCN)NC(=O)[C@H](CCCNC(=N)N)NC(=O)CNC(=O)[C@@H](N)Cc1ccc(O)cc1)C(=O)NCC(=O)N[C@@H](CC(N)=O)C(=O)N[C@H](C(=O)N[C@H](C(=O)N[C@@H](CCC(=O)O)C(=O)N[C@@H](C)C(=O)N[C@@H](CC(C)C)C(=O)N[C@@H](Cc1ccccc1)C(=O)N[C@@H](CCC(N)=O)C(=O)O)[C@@H](C)CC)[C@@H](C)O [RQ]
- IC50 (CVB3): 2.31 µM
- CC50 at 24 h ([1]; African green monkey, CCK-8): > 150 µM
- viability at 24 h, 0.073242 µM ([1]; polypeptide 0.073242 μM, read-out: Cell viability (%)): 101%
- viability at 24 h, 0.146484 µM ([1]; polypeptide 0.146484 μM, read-out: Cell viability (%)): 93.8%
- viability at 24 h, 0.292969 µM ([1]; polypeptide 0.292969 μM, read-out: Cell viability (%)): 92.7%
- viability at 24 h, 0.585938 µM ([1]; polypeptide 0.585938 μM, read-out: Cell viability (%)): 92.2%
- viability at 24 h, 1.17188 µM ([1]; polypeptide 1.171875 μM, read-out: Cell viability (%)): 116%
- viability at 24 h, 2.34375 µM ([1]; polypeptide 2.34375 μM, read-out: Cell viability (%)): 116%
- viability at 24 h, 4.6875 µM ([1]; polypeptide 4.6875 μM, read-out: Cell viability (%)): 113%
- viability at 24 h, 9.375 µM ([1]; polypeptide 9.375 μM, read-out: Cell viability (%)): 118%
- viability at 24 h, 18.75 µM ([1]; polypeptide 18.75 μM, read-out: Cell viability (%)): 111%
- viability at 24 h, 37.5 µM ([1]; polypeptide 37.5 μM, read-out: Cell viability (%)): 106%
- viability at 24 h, 75 µM ([1]; polypeptide 75 μM, read-out: Cell viability (%)): 110%
- viability at 24 h, 150 µM ([1]; polypeptide 150 μM, read-out: Cell viability (%)): 108%
- Cell viability (%) (Vero cells; polypeptide 0.073242 μM): 110.2362% and 105.9618%
- Cell viability (%) (Vero cells; polypeptide 0.146484 μM): 99.1% and 98.99%
- Cell viability (%) (Vero cells; polypeptide 0.292969 μM): 106.7492%
- Cell viability (%) (Vero cells; polypeptide 0.585938 μM): 91.56% and 90.78%
- Cell viability (%) (Vero cells; polypeptide 1.171875 μM): 115.2981% and 115.5231%
- Cell viability (%) (Vero cells; polypeptide 2.34375 μM): 111.0236% and 119.1226%
- Cell viability (%) (Vero cells; polypeptide 4.6875 μM): 109.7863% and 118.7852%
- Cell viability (%) (Vero cells; polypeptide 9.375 μM): 109.3363% and 99.1%
- Cell viability (%) (Vero cells; polypeptide 18.75 μM): 115.4106% and 105.7368%
- Cell viability (%) (Vero cells; polypeptide 37.5 μM): 108.5489%
- Cell viability (%) (Vero cells; polypeptide 75 μM): 127.5591% and 120.5849%
- Cell viability (%) (Vero cells; polypeptide 150 μM): 103.5996% and 100.1125%
- IC50 (EV71): 0.41 µM
- viability at 24 h, 0.073242 µM ([2]; Table 14, RQ 0.073242 μM, 24 h, read-out: Viability of Huh7 cell (%)): 113%
- viability at 24 h, 0.146484 µM ([2]; Table 14, RQ 0.146484 μM, 24 h, read-out: Viability of Huh7 cell (%)): 111%
- viability at 24 h, 0.292969 µM ([2]; Table 14, RQ 0.292969 μM, 24 h, read-out: Viability of Huh7 cell (%)): 111%
- viability at 24 h, 0.585938 µM ([2]; Table 14, RQ 0.585938 μM, 24 h, read-out: Viability of Huh7 cell (%)): 101%
- viability at 24 h, 1.17188 µM ([2]; Table 14, RQ 1.171875 μM, 24 h, read-out: Viability of Huh7 cell (%)): 104%
- viability at 24 h, 2.34375 µM ([2]; Table 14, RQ 2.34375 μM, 24 h, read-out: Viability of Huh7 cell (%)): 98.7%
- viability at 24 h, 4.6875 µM ([2]; Table 14, RQ 4.6875 μM, 24 h, read-out: Viability of Huh7 cell (%)): 98%
- viability at 24 h, 9.375 µM ([2]; Table 14, RQ 9.375 μM, 24 h, read-out: Viability of Huh7 cell (%)): 103%
- viability at 24 h, 18.75 µM ([2]; Table 14, RQ 18.75 μM, 24 h, read-out: Viability of Huh7 cell (%)): 101%
- viability at 24 h, 37.5 µM ([2]; Table 14, RQ 37.5 μM, 24 h, read-out: Viability of Huh7 cell (%)): 95%
- viability at 24 h, 75 µM ([2]; Table 14, RQ 75 μM, 24 h, read-out: Viability of Huh7 cell (%)): 90.9%
- viability at 24 h, 150 µM ([2]; Table 14, RQ 150 μM, 24 h, read-out: Viability of Huh7 cell (%)): 65.8%
- CC50 at 24 h ([2]; Table 1 (Huh and 293T cells)): > 300 µM
- Viability of Huh7 cell (%) (Huh7 cells; RQ 0.073242 μM): 113.9801% and 116.7518%
- Viability of Huh7 cell (%) (Huh7 cells; RQ 0.146484 μM): 106.6132% and 101.8721%
- Viability of Huh7 cell (%) (Huh7 cells; RQ 0.292969 μM): 104.4979% and 102.018%
- Viability of Huh7 cell (%) (Huh7 cells; RQ 0.585938 μM): 100.7051% and 101.5074%
- Viability of Huh7 cell (%) (Huh7 cells; RQ 1.171875 μM): 97.2% and 99.03%
- Viability of Huh7 cell (%) (Huh7 cells; RQ 2.34375 μM): 100.1945% and 96.04%
- Viability of Huh7 cell (%) (Huh7 cells; RQ 4.6875 μM): 103.5497% and 101.2886%
- Viability of Huh7 cell (%) (Huh7 cells; RQ 9.375 μM): 101.4345% and 97.71%
- Viability of Huh7 cell (%) (Huh7 cells; RQ 18.75 μM): 93.41% and 94.29%
- Viability of Huh7 cell (%) (Huh7 cells; RQ 37.5 μM): 97.06% and 92.03%
- Viability of Huh7 cell (%) (Huh7 cells; RQ 75 μM): 93.27% and 88.09%
- Viability of Huh7 cell (%) (Huh7 cells; RQ 150 μM): 67.74% and 51.47%

— patent publication US20250263436A1, “BROAD-SPECTRUM ANTIVIRAL DRUG FOR ENTEROVIRUS, AND APPLICATION” (WUHAN INSTITUTE OF VIROLOGY, CHINESE ACADEMY OF SCIENCES, priority 2020, published 2025)
